The text below walks through data of patent US8697865B2, “Cyclic amide derivative, and its production and use” (Takeda Pharmaceutical Company Limited, priority 2004, dated 2014).

The structures appear in SMILES notation. Where a name gives a salt, the structure may show the parent alone.

The target of one series is human FXa (Homo sapiens, UniProt P00742). Put plainly: Inhibitory action of human activated blood coagulation factor X (FXa). The settings on record: chromogenic substrate S-2765, 37° C., absorbance at 405 nm, read-out: IC50 (concentration inhibiting FXa activity by 50%). It is filed as biochemical.
Sequence of human FXa (P00742 235-488 limits assumed): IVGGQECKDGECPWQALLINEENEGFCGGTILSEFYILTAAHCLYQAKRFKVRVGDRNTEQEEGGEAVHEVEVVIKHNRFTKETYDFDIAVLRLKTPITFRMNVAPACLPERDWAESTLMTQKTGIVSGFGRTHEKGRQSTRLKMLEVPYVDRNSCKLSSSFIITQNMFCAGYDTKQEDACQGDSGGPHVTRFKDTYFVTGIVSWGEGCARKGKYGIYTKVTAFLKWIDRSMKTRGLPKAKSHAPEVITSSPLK
Sequence of human FXa (P00742 41-179 partner limits assumed): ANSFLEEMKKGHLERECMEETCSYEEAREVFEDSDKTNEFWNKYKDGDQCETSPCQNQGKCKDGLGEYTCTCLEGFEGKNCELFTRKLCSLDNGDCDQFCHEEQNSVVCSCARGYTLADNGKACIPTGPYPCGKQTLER

Take `N=C1CCCCN1C1CCN(C(=O)[C@H](O)CS(=O)(=O)c2ccc3cc(Cl)ccc3c2)CC1` [Example 43, (2S)-3-[(6-Chloronaphthalen-2-yl)sulfonyl]-1-(2-imino-1,4′-bipiperidin-1′-yl)-1-oxopropan-2-ol trifluoroacetate]: the IC50 on human FXa was found to be 4.8 nM. For the compound `O=C([C@H](O)CS(=O)(=O)c1ccc2cc(Cl)ccc2c1)N1CCN(N2CCCNC2=O)CC1` [Example 25, 1-(4-{(2S)-3-[(6-Chloronaphthalen-2-yl)sulfonyl]-2-hydroxypropanoyl}piperazin-1-yl)tetrahydropyrimidin-2(1H)-one], the IC50 on human FXa came to 4.2 nM. `O=C([C@H](O)CS(=O)(=O)c1ccc2cc(Cl)ccc2c1)N1CCN(N2CCCCC2=O)CC1` [Example 8, 1-(4-{(2S)-3-[(6-Chloronaphthalen-2-yl)sulfonyl]-2-hydroxypropanoyl}piperazin-1-yl)piperidin-2-one] yielded a melting point of 198 °C. In addition, on human FXa, the IC50 is 6.6 nM. As for `O=C(CCS(=O)(=O)c1ccc2cc(Cl)ccc2c1)N1CCN(N2CCCNC2=O)CC1` [Example 33, 1-(1-{3-[(6-Chloronaphthalen-2-yl)sulfonyl]propanoyl}piperazin-4-yl)tetrahydropyrimidin-2(1H)-one], the IC50 on human FXa was found to be 9.9 nM.

For orientation: melting point means the temperature, or range, at which the solid turns liquid.
